Like-named read-outs stand apart in the source and are kept apart here.
What was measured:
red rice (Oryza sativa) [1] = experiment: Pre-emergent evaluation on flooded rice, red rice control; type: in vivo; conditions: PRE, direct-seeded flooded rice
Method: Rice (Oryza sativa) crop varieties (‘Cybonee’, ‘Jupiter’, and ‘Taggart’) and red rice (Oryza sativa) were planted in 6 inch plastic pots containing sterile top soil. Eight to ten seeds of each species were seeded at 12 o'clock, 3 o'clock, 6 o'clock or 9 o'clock around the pot. The pots were watered after planting. […] The test solutions were applied using a compressed air track spray chamber at 30 gallons per acre using a Teejet 8001E nozzle at 40 PSI, three replicates per test rate. After treatment, the pots were watered lightly and transferred to trays in a greenhouse. After the plants were two inches in height the trays were flooded with water and maintained as such for 14 days. The trays were emptied of water and the pots were maintained by regular watering for 4 more days. At 14, 21 and 28 days after treatment (DAT) the plants were evaluated versus untreated control pots containing the same rice and weeds using a scale of 0% (no control) to 100% (complete plant death).

[2] = tested on: Rice (Oryza sativa) 'Cybonee'; conditions: PRE, direct-seeded dryland rice
Source text: Rice (Oryza sativa) was planted in 6″ by 10″ fiber flats filled with sterile top soil. Five rows were made in each flat and the three rice varieties (′Cybonee, ‘Jupiter’, and ‘Taggart’) were planted in the center 3 rows and a row of red rice (Oryza sativa) was planted on either end of the flat. The flats were watered after planting. After application flats were placed in the greenhouse and lightly watered. […] The flats were moved to a greenhouse and watered and fertilized routinely. Studies were conducted using randomized complete block design with four replications. In both studies, visual percent red rice control and rice injury were recorded at 14, 21, and 28 days after treatment (DAT), using a scale of 0 (no control/injury) to 100 (complete plant death).

[3] = tested on: Benghal dayflower (Commelina benghalensis); experiment: Pre-emergent weed control in direct-seeded flooded rice (Example 2); type: in vivo; conditions: 28 Days After Treatment
Source text: (§1) Seeds of crops, rice (Taggart and Wells varieties) and weeds, yellow nutsedge (Cyperus esculentus), barnyardgrass (Echinochloa crus-galli), large crabgrass (Digitaria sanguinalis), hemp sesbania (Sesbania herbacea), Benghal dayflower (Commelina benghalensis), red rice (Oryza sativa) and broadleaf signalgrass (Urochloa platyphylla) were planted in two gallon pots containing top soil. Each pot was watered well before the application of mesotrione (Callisto® Herbicide from Syngenta Crop Protection).

[4] = tested on: barnyardgrass (Echinochloa crus-galli); experiment: as above; type: in vivo; conditions: 28 Days After Treatment
Source text: as §1

[5] = tested on: broadleaf signalgrass (Urochloa platyphylla); experiment: as above; type: in vivo; conditions: 28 Days After Treatment
Source text: as §1

[6] = tested on: hemp sesbania (Sesbania herbacea); experiment: as above; type: in vivo; conditions: 28 Days After Treatment
Source text: as §1

[7] = tested on: large crabgrass (Digitaria sanguinalis); experiment: as above; type: in vivo; conditions: 28 Days After Treatment
Source text: as §1

red rice (Oryza sativa) [8] = experiment: as above; type: in vivo; conditions: for % weed control Red Rice: pre-emergent, flooded, 28 Days After Treatment
Source text: as §1

[9] = tested on: yellow nutsedge (Cyperus esculentus); experiment: as above; type: in vivo; conditions: for % weed control Nutsedge: pre-emergent, flooded, 28 Days After Treatment
Source text: as §1

yellow nutsedge = experiment: Direct seeded dryland rice test, pre-emergent (FIG. 2); type: in vivo; conditions: pre-emergent treatment at 25 g ai/ha
[10] = pre-emergent treatment at 50 g ai/ha, flooded rice test

CS(=O)(=O)c1ccc(C(=O)C2C(=O)CCCC2=O)c([N+](=O)[O-])c1 [Mesotrione, mesotrione]
Percent red rice control (red rice (Oryza sativa) [1]; 14 DAT, 12.5 g ai/ha): 68 BC % | Percent red rice control (red rice (Oryza sativa) [1]; 14 DAT, 25 g ai/ha): 70 ABC % | Percent red rice control (red rice (Oryza sativa) [1]; 14 DAT, 37.5 g ai/ha): 78 AB % | Percent red rice control (red rice (Oryza sativa) [1]; 14 DAT, 50 g ai/ha): 81 AB % | Percent red rice control (red rice (Oryza sativa) [1]; 14 DAT, 62.5 g ai/ha): 81 AB % | Percent red rice control (red rice (Oryza sativa) [1]; 14 DAT, 75 g ai/ha): 84 A % | Percent red rice control (red rice (Oryza sativa) [1]; 14 DAT, 87.5 g ai/ha): 80 AB % | Percent red rice control (red rice (Oryza sativa) [1]; 14 DAT, 100 g ai/ha): 84 A % | Percent red rice control (red rice (Oryza sativa) [1]; 21 DAT, 12.5 g ai/ha): 91 A % | Percent red rice control (red rice (Oryza sativa) [1]; 21 DAT, 25 g ai/ha): 97 A % | Percent red rice control (red rice (Oryza sativa) [1]; 21 DAT, 37.5 g ai/ha): 98 A % | Percent red rice control (red rice (Oryza sativa) [1]; 21 DAT, 50 g ai/ha): 97 A % | Percent red rice control (red rice (Oryza sativa) [1]; 21 DAT, 62.5 g ai/ha): 97 A % | Percent red rice control (red rice (Oryza sativa) [1]; 21 DAT, 75 g ai/ha): 98 A % | Percent red rice control (red rice (Oryza sativa) [1]; 21 DAT, 87.5 g ai/ha): 98 A % | Percent red rice control (red rice (Oryza sativa) [1]; 21 DAT, 100 g ai/ha): 98 A % | Percent red rice control (red rice (Oryza sativa) [1]; 28 DAT, 12.5 g ai/ha): 93 A % | Percent red rice control (red rice (Oryza sativa) [1]; 28 DAT, 25 g ai/ha): 97 A % | Percent red rice control (red rice (Oryza sativa) [1]; 28 DAT, 37.5 g ai/ha): 100 A % | Percent red rice control (red rice (Oryza sativa) [1]; 28 DAT, 50 g ai/ha): 99 A % | Percent red rice control (red rice (Oryza sativa) [1]; 28 DAT, 62.5 g ai/ha): 99 A % | Percent red rice control (red rice (Oryza sativa) [1]; 28 DAT, 75 g ai/ha): 100 A % | Percent red rice control (red rice (Oryza sativa) [1]; 28 DAT, 87.5 g ai/ha): 98 A % | Percent red rice control (red rice (Oryza sativa) [1]; 28 DAT, 100 g ai/ha): 100 A % | Percent rice injury Cybonet ([2]; 14 DAT, 12.5 g ai/ha): 6 BCD % | Percent rice injury Cybonet ([2]; 14 DAT, 25 g ai/ha): 1 D % | Percent rice injury Cybonet ([2]; 14 DAT, 37.5 g ai/ha): 1 D % | Percent rice injury Cybonet ([2]; 14 DAT, 50 g ai/ha): 1 D % | Percent rice injury Cybonet ([2]; 14 DAT, 62.5 g ai/ha): 4 D % | Percent rice injury Cybonet ([2]; 14 DAT, 75 g ai/ha): 5 CD % | Percent rice injury Cybonet ([2]; 14 DAT, 87.5 g ai/ha): 11 BC % | Percent rice injury Cybonet ([2]; 14 DAT, 100 g ai/ha): 12 B % | Percent rice injury Cybonet ([2]; 21 DAT, 12.5 g ai/ha): 5 DE % | Percent rice injury Cybonet ([2]; 21 DAT, 25 g ai/ha): 1 E % | Percent rice injury Cybonet ([2]; 21 DAT, 37.5 g ai/ha): 1 E % | Percent rice injury Cybonet ([2]; 21 DAT, 50 g ai/ha): 5 DE % | Percent rice injury Cybonet ([2]; 21 DAT, 62.5 g ai/ha): 5 DE % | Percent rice injury Cybonet ([2]; 21 DAT, 75 g ai/ha): 8 BCD % | Percent rice injury Cybonet ([2]; 21 DAT, 87.5 g ai/ha): 12 BC % | Percent rice injury Cybonet ([2]; 21 DAT, 100 g ai/ha): 13 B % | Percent rice injury Cybonet ([2]; 28 DAT, 12.5 g ai/ha): 5 DE % | Percent rice injury Cybonet ([2]; 28 DAT, 25 g ai/ha): 1 E % | Percent rice injury Cybonet ([2]; 28 DAT, 37.5 g ai/ha): 1 E % | Percent rice injury Cybonet ([2]; 28 DAT, 50 g ai/ha): 6 DE % | Percent rice injury Cybonet ([2]; 28 DAT, 62.5 g ai/ha): 9 DE % | Percent rice injury Cybonet ([2]; 28 DAT, 75 g ai/ha): 15 CD % | Percent rice injury Cybonet ([2]; 28 DAT, 87.5 g ai/ha): 25 BC % | Percent rice injury Cybonet ([2]; 28 DAT, 100 g ai/ha): 33 AB % | % weed control Dayflower ([3]; 6 g ai/ha): 17% | % weed control Dayflower ([3]; 12 g ai/ha): 63% | % weed control Dayflower ([3]; 25 g ai/ha): 67% | % weed control Dayflower ([3]; 50 g ai/ha): 93% | % weed control Dayflower ([3]; 100 g ai/ha): 83% | % weed control Dayflower ([3]; 200 g ai/ha): 90% | % weed control Barnyardgrass ([4]; 6 g ai/ha): 10% | % weed control Barnyardgrass ([4]; 12 g ai/ha): 32% | % weed control Barnyardgrass ([4]; 25 g ai/ha): 35% | % weed control Barnyardgrass ([4]; 50 g ai/ha): 62% | % weed control Barnyardgrass ([4]; 100 g ai/ha): 82% | % weed control Barnyardgrass ([4]; 200 g ai/ha): 100% | % weed control Signalgrass ([5]; 6 g ai/ha): 23% | % weed control Signalgrass ([5]; 12 g ai/ha): 23% | % weed control Signalgrass ([5]; 25 g ai/ha): 57% | % weed control Signalgrass ([5]; 50 g ai/ha): 90% | % weed control Signalgrass ([5]; 100 g ai/ha): 98% | % weed control Signalgrass ([5]; 200 g ai/ha): 100% | % weed control Hemp ([6]; 6 g ai/ha): 0% | % weed control Hemp ([6]; 12 g ai/ha): 30% | % weed control Hemp ([6]; 25 g ai/ha): 13% | % weed control Hemp ([6]; 50 g ai/ha): 45% | % weed control Hemp ([6]; 100 g ai/ha): 98% | % weed control Hemp ([6]; 200 g ai/ha): 100% | % weed control Crabgrass ([7]; 6 g ai/ha): 70% | % weed control Crabgrass ([7]; 12 g ai/ha): 100% | % weed control Crabgrass ([7]; 25 g ai/ha): 100% | % weed control Crabgrass ([7]; 50 g ai/ha): 100% | % weed control Crabgrass ([7]; 100 g ai/ha): 100% | % weed control Crabgrass ([7]; 200 g ai/ha): 100% | red rice control (words, FIG. 1) (red rice (Oryza sativa) [8]; [10]): controlled | % weed control Red Rice (red rice (Oryza sativa) [8]; 6 g ai/ha): 23% | % weed control Red Rice (red rice (Oryza sativa) [8]; 12 g ai/ha): 33% | % weed control Red Rice (red rice (Oryza sativa) [8]; 25 g ai/ha): 90% | % weed control Red Rice (red rice (Oryza sativa) [8]; 50 g ai/ha): 100% | % weed control Red Rice (red rice (Oryza sativa) [8]; 100 g ai/ha): 97% | % weed control Red Rice (red rice (Oryza sativa) [8]; 200 g ai/ha): 100% | red rice control (red rice (Oryza sativa) [8]; summary of Table 7 data): controls | yellow nutsedge control (words, FIG. 1) [9, 10]: controlled | % weed control Nutsedge ([9]; 6 g ai/ha): 38% | % weed control Nutsedge ([9]; 12 g ai/ha): 77% | % weed control Nutsedge ([9]; 25 g ai/ha): 92% | % weed control Nutsedge ([9]; 50 g ai/ha): 97% | % weed control Nutsedge ([9]; 100 g ai/ha): 100% | % weed control Nutsedge ([9]; 200 g ai/ha): 100% | yellow nutsedge control (words, FIG. 2) (yellow nutsedge): controlled

From patent publication US9635854B2, “Controlling red rice with mesotrione” (FMC Corporation, priority 2014, dated 2017)
